In publication PMC5066224, “A Novel Resveratrol Based Tubulin Inhibitor Induces Mitotic Arrest and Activates Apoptosis in Cancer Cells” (Scientific Reports, 2016):

Key:
[1] = system: A549 cells; experiment: Immunofluorescence microscopy of spindle microtubule organisation; type: cell-based, human; conditions: A549, positive control, compared to untreated cells
Experimental: Immunofluorescence microscopy was performed as previously described. A549 cells were grown on coverslips coated with gelatin (0.1%). […] After 24 h of the treatment nonspecific antibody binding sites were blocked using FBS following which cells were incubated with antitubulin antibody (1:500) at RT. Coverslips were washed in PBS, incubated in biotinylated antimouse secondary antibody (1:500; RT for 1 h) followed by Streptavidin-FITC (1:200). Finally, cells were mounted with DABCO and images were captured using Zeiss Fluorescence microscope and analyzed using Axio vision software. Colchicine treated cells were used as a positive control.

[2] = system: CEM cells; experiment: Intracellular ROS production (H2DCFDA, flow cytometry); type: cell-based, Human; conditions: 5 to 60 min
Experimental: Intracellular ROS generation in cells was assessed using the oxidation-sensitive fluorescent probe 2,7-dichlorodihydro fluorescein diacetate (H2DCFDA) as previously described. CEM cells were treated with SS28 (5 μM) for 5, 10, 15, 30 and 60 min, harvested, washed and incubated with H2DCFDA (30 min at 37 °C) and then fluorescence intensity was analyzed by flow cytometry. H2O2 was used as the positive control.

SMILES | effect on chromosomes and mitosis (immunofluorescence) [1] | intracellular ROS production [2]
COc1cc2c(c(OC)c1OC)-c1ccc(OC)c(=O)cc1[C@@H](NC(C)=O)CC2 [Colchicine, reference compound] | chromosome condensation and metaphase arrest was observed | –
OO [H2O2, reference compound] | – | distinct ROS production
